# Source: PubChem BioAssay AID1919005 (Molecular Pharmacology Branch, DTP, NCI, 2023)
# Values joined by “and” are separate entries in the source; they are usually repeats but may differ in a detail not shown here. Equal values may be shown once.
# System: 855422-203-R-J1-PDC complex spheroid growth
# Assay: Anticancer human tumor 855422-203-R-J1-PDC patient-derived bladder carcinoma cell line growth inhibition [AhR]
# Details: for viability, T/C: stronger effect = lower value
# How it was run: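 Agents were dosed in half-log steps down from roughly clinical Cmax, or from 10 microM where Cmax was unknown, alone and with AhR antagonists. Read-out: percent test/control growth of tumor spheroids containing HUVEC and MSC stromal cells.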
# [1] = curve of first compound, second compound 0.1 µM
# [2] = curve of first compound, second compound 0.316 µM
# [3] = curve of first compound, second compound 1 µM
# [4] = curve of first compound, second compound 3.16 µM
# [5] = curve of first compound, second compound 10 µM
# [6] = second compound 0.1 µM, first compound 0.0316 µM
# [7] = second compound 0.1 µM, first compound 0.1 µM
# [8] = second compound 0.1 µM, first compound 0.316 µM
# [9] = second compound 0.1 µM, first compound 1 µM
# [10] = second compound 0.1 µM, first compound 3.16 µM
# [11] = second compound 0.1 µM, first compound 10 µM
# [12] = second compound 0.316 µM, first compound 0.0316 µM
# [13] = second compound 0.316 µM, first compound 0.1 µM
# [14] = second compound 0.316 µM, first compound 0.316 µM
# [15] = second compound 0.316 µM, first compound 1 µM
# [16] = second compound 0.316 µM, first compound 3.16 µM
# [17] = second compound 0.316 µM, first compound 10 µM
# [18] = second compound 1 µM, first compound 0.0316 µM
# [19] = second compound 1 µM, first compound 0.1 µM
# [20] = second compound 1 µM, first compound 0.316 µM
# [21] = second compound 1 µM, first compound 1 µM
# [22] = second compound 1 µM, first compound 3.16 µM
# [23] = second compound 1 µM, first compound 10 µM
# [24] = second compound 3.16 µM, first compound 0.0316 µM
# [25] = second compound 3.16 µM, first compound 0.1 µM
# [26] = second compound 3.16 µM, first compound 0.316 µM
# [27] = second compound 3.16 µM, first compound 1 µM
# [28] = second compound 3.16 µM, first compound 3.16 µM
# [29] = second compound 3.16 µM, first compound 10 µM
# [30] = second compound 10 µM, first compound 0.0316 µM
# [31] = second compound 10 µM, first compound 0.1 µM
# [32] = second compound 10 µM, first compound 0.316 µM
# [33] = second compound 10 µM, first compound 1 µM
# [34] = second compound 10 µM, first compound 3.16 µM
# [35] = second compound 10 µM, first compound 10 µM
# 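Also: spheroids exposed to agents for seven days before readout.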
# 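For viability, T/C in this document: percent of DMSO vehicle control luminescence viability.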
smiles,measurement,setting,value
CCN(c1cc(-c2ccc(CN3CCOCC3)cc2)cc(C(=O)NCc2c(C)cc(C)[nH]c2=O)c1C)C1CCOCC1 + Cc1cncc(-c2nc(NCCc3c[nH]c4ccccc34)c3ncn(C(C)C)c3n2)c1,IC50,[1],> 3 µM
same,IC50,[2],> 3 µM
same,IC50,[3],> 3 µM
same,IC50,[4],> 3 µM
same,IC50,[5],< 0.00949 µM
same,"viability, T/C","second compound 0.1 µM, first compound 0.00949 µM",90.5%
same,"viability, T/C","second compound 0.1 µM, first compound 0.03 µM",84.7%
same,"viability, T/C","second compound 0.1 µM, first compound 0.0949 µM",92%
same,"viability, T/C","second compound 0.1 µM, first compound 0.3 µM",83.1%
same,"viability, T/C","second compound 0.1 µM, first compound 0.949 µM",85.3%
same,"viability, T/C","second compound 0.1 µM, first compound 3 µM",70.7%
same,"viability, T/C","second compound 0.316 µM, first compound 0.00949 µM",88.9%
same,"viability, T/C","second compound 0.316 µM, first compound 0.03 µM",78.3%
same,"viability, T/C","second compound 0.316 µM, first compound 0.0949 µM",86.6%
same,"viability, T/C","second compound 0.316 µM, first compound 0.3 µM",74.2%
same,"viability, T/C","second compound 0.316 µM, first compound 0.949 µM",76.2%
same,"viability, T/C","second compound 0.316 µM, first compound 3 µM",75.7%
same,"viability, T/C","second compound 1 µM, first compound 0.00949 µM",89.4%
same,"viability, T/C","second compound 1 µM, first compound 0.03 µM",85.7%
same,"viability, T/C","second compound 1 µM, first compound 0.0949 µM",74.8%
same,"viability, T/C","second compound 1 µM, first compound 0.3 µM",75%
same,"viability, T/C","second compound 1 µM, first compound 0.949 µM",76.1%
same,"viability, T/C","second compound 1 µM, first compound 3 µM",73.7%
same,"viability, T/C","second compound 3.16 µM, first compound 0.00949 µM",74.8%
same,"viability, T/C","second compound 3.16 µM, first compound 0.03 µM",85.5%
same,"viability, T/C","second compound 3.16 µM, first compound 0.0949 µM",64.1%
same,"viability, T/C","second compound 3.16 µM, first compound 0.3 µM",51.7%
same,"viability, T/C","second compound 3.16 µM, first compound 0.949 µM",69%
same,"viability, T/C","second compound 3.16 µM, first compound 3 µM",66.3%
same,"viability, T/C","second compound 10 µM, first compound 0.00949 µM",24.9%
same,"viability, T/C","second compound 10 µM, first compound 0.03 µM",32.4%
same,"viability, T/C","second compound 10 µM, first compound 0.0949 µM",15.5%
same,"viability, T/C","second compound 10 µM, first compound 0.3 µM",1.7%
same,"viability, T/C","second compound 10 µM, first compound 0.949 µM",4.26%
same,"viability, T/C","second compound 10 µM, first compound 3 µM",0.96%
CC1COCCN1c1cc(-c2ccnn2C)c2ccnc(-c3ccn[nH]3)c2n1 (stereo not drawn),"viability, T/C",compound 0.00316 µM,99.8% and 104% and 109%
same,"viability, T/C",compound 0.01 µM,100% and 108% and 107%
same,"viability, T/C",compound 0.0316 µM,106% and 101% and 96.2%
same,"viability, T/C",compound 0.1 µM,98.3% and 103% and 91.9%
same,"viability, T/C",compound 0.316 µM,36.1% and 71.9% and 59.7%
same,"viability, T/C",compound 1 µM,12.2% and 25.8% and 17.1%
same,IC50,curve of compound,0.244 µM and 0.546 µM and 0.421 µM
CC1(C)CCC(CN2CCN(c3ccc(C(=O)NS(=O)(=O)c4ccc(NCC5CCOCC5)c([N+](=O)[O-])c4)c(Oc4cnc5[nH]ccc5c4)c3)CC2)=C(c2ccc(Cl)cc2)C1,"viability, T/C",compound 0.0316 µM,98.4% and 107% and 103%
same,"viability, T/C",compound 0.1 µM,95.8% and 106% and 98.7%
same,"viability, T/C",compound 0.316 µM,108% and 103% (2×)
same,"viability, T/C",compound 1 µM,97.6% and 116% and 104%
same,"viability, T/C",compound 3.16 µM,108% and 118% and 100%
same,"viability, T/C",compound 10 µM,13.2% and 22.8% and 8.45%
same,IC50,curve of compound,6.19 µM and 6.99 µM and 5.93 µM
O=C(c1cc(Cc2n[nH]c(=O)c3ccccc23)ccc1F)N1CCN(C(=O)C2CC2)CC1 + Cc1ccccc1N=Nc1ccc(NC(=O)c2ccnn2C)c(C)c1,IC50,[1],> 10 µM
same,IC50,[2],> 10 µM
same,IC50,[3],> 10 µM
same,IC50,[4],> 10 µM
same,IC50,[5],> 10 µM
same,"viability, T/C",[6],96.5%
same,"viability, T/C",[7],102%
same,"viability, T/C",[8],99.3%
same,"viability, T/C",[9],95.1%
same,"viability, T/C",[10],90.9%
same,"viability, T/C",[11],93.2%
same,"viability, T/C",[12],102%
same,"viability, T/C",[13],100%
same,"viability, T/C",[14],97.8%
same,"viability, T/C",[15],93.1%
same,"viability, T/C",[16],94.2%
same,"viability, T/C",[17],93.1%
same,"viability, T/C",[18],97.6%
same,"viability, T/C",[19],102%
same,"viability, T/C",[20],103%
same,"viability, T/C",[21],100%
same,"viability, T/C",[22],101%
same,"viability, T/C",[23],94.6%
same,"viability, T/C",[24],90.2%
same,"viability, T/C",[25],91.7%
same,"viability, T/C",[26],92.2%
same,"viability, T/C",[27],94.3%
same,"viability, T/C",[28],93.3%
same,"viability, T/C",[29],84.2%
same,"viability, T/C",[30],80.9%
same,"viability, T/C",[31],79.3%
same,"viability, T/C",[32],76.9%
same,"viability, T/C",[33],79.7%
same,"viability, T/C",[34],74%
same,"viability, T/C",[35],63.6%
CC1(C)CCC(CN2CCN(c3ccc(C(=O)NS(=O)(=O)c4ccc(NCC5CCOCC5)c([N+](=O)[O-])c4)c(Oc4cnc5[nH]ccc5c4)c3)CC2)=C(c2ccc(Cl)cc2)C1 + Cc1ccccc1N=Nc1ccc(NC(=O)c2ccnn2C)c(C)c1,IC50,[1],6.82 µM
same,IC50,[2],6.89 µM
same,IC50,[3],7.01 µM
same,IC50,[4],6.66 µM
same,IC50,[5],4.83 µM
same,"viability, T/C",[6],102%
same,"viability, T/C",[7],114%
same,"viability, T/C",[8],101%
same,"viability, T/C",[9],107%
same,"viability, T/C",[10],110%
same,"viability, T/C",[11],21.8%
same,"viability, T/C",[12],105%
same,"viability, T/C",[13],106%
same,"viability, T/C",[14],102%
same,"viability, T/C",[15],114%
same,"viability, T/C",[16],106%
same,"viability, T/C",[17],23.1%
same,"viability, T/C",[18],108%
same,"viability, T/C",[19],116%
same,"viability, T/C",[20],102%
same,"viability, T/C",[21],106%
same,"viability, T/C",[22],116%
same,"viability, T/C",[23],23.4%
same,"viability, T/C",[24],95.8%
same,"viability, T/C",[25],102%
same,"viability, T/C",[26],105%
same,"viability, T/C",[27],105%
same,"viability, T/C",[28],98.2%
same,"viability, T/C",[29],23.6%
same,"viability, T/C",[30],94.1%
same,"viability, T/C",[31],83.5%
same,"viability, T/C",[32],89%
same,"viability, T/C",[33],85.6%
same,"viability, T/C",[34],62.9%
same,"viability, T/C",[35],27.7%
Cc1cncc(-c2nc(NCCc3c[nH]c4ccccc34)c3ncn(C(C)C)c3n2)c1,"viability, T/C",compound 0.1 µM,92.2% [middle of 19 runs]
same,"viability, T/C",compound 1 µM,86.3% [middle of 20 runs]
same,IC50,"compound alone, run of 06/06/2022",5.43 µM [middle of 22 runs]
NS(=O)(=O)OCC1CC(n2ccc3c(NC4CCc5ccccc54)ncnc32)CC1O (stereo not drawn) + CC(CO)NC(=O)c1cc(-c2ccc(Cl)cc2)nn(-c2cnn(C)c2)c1=O,IC50,[1],0.855 µM
same,IC50,[2],0.795 µM
same,IC50,[3],0.699 µM
same,IC50,[4],0.524 µM
same,IC50,[5],0.47 µM
same,"viability, T/C",[6],99.8%
same,"viability, T/C",[7],117%
same,"viability, T/C",[8],93%
same,"viability, T/C",[9],43.2%
same,"viability, T/C",[10],15.3%
same,"viability, T/C",[11],10.1%
same,"viability, T/C",[12],90.5%
same,"viability, T/C",[13],109%
same,"viability, T/C",[14],84.4%
same,"viability, T/C",[15],41.5%
same,"viability, T/C",[16],12.4%
same,"viability, T/C",[17],7.98%
same,"viability, T/C",[18],104%
same,"viability, T/C",[19],102%
same,"viability, T/C",[20],85.4%
same,"viability, T/C",[21],34.1%
same,"viability, T/C",[22],11.4%
same,"viability, T/C",[23],9.77%
same,"viability, T/C",[24],87%
same,"viability, T/C",[25],97.9%
same,"viability, T/C",[26],61.9%
same,"viability, T/C",[27],31.9%
same,"viability, T/C",[28],9.85%
same,"viability, T/C",[29],8.37%
same,"viability, T/C",[30],87.6%
same,"viability, T/C",[31],82.8%
same,"viability, T/C",[32],53.5%
same,"viability, T/C",[33],38.6%
same,"viability, T/C",[34],11.7%
same,"viability, T/C",[35],8.14%
Cc1ccccc1N=Nc1ccc(NC(=O)c2ccnn2C)c(C)c1,"viability, T/C",compound 0.1 µM,98.6% [middle of 20 runs]
same,"viability, T/C",compound 0.316 µM,98.5% [middle of 20 runs]
same,"viability, T/C",compound 1 µM,101% [middle of 20 runs]
same,"viability, T/C",compound 3.16 µM,94.4% [middle of 20 runs]
same,"viability, T/C",compound 10 µM,80.9% [middle of 20 runs]
same,IC50,"compound alone, run of 06/14/2022",> 10 µM
